Test results: patent publication US12478624B2, “Heterocyclic derivatives, pharmaceutical compositions and their use in the treatment or amelioration of cancer” (Tolremo Therapeutics AG, priority 2019, dated 2025)

How the values were obtained:
A375 cells = assay: Assay 1: A375 cells treated with S1152, S1008 and compound, immunofluorescence (sc-365823) signal; type: cell-based; conditions: 1 μM S1152 + 0.5 μM S1008, one day
Procedure, shortened: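 A375 cells treated one day with 1 μM S1152, 0.5 μM S1008 and compound dose ranges in DMEM/10% FCS, then fixed, permeabilised and immunostained. Green signal normalised to nuclear counterstain (ethidium-type or DAPI), log ratio fitted by four-parameter regression for EC50.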

OPM-2 = assay: Assay 2: multiple myeloma cellular efficacy, PrestoBlue cell proliferation/survival; type: cell-based; conditions: Homo sapiens, 96 h, OPM-2 cells, 4 days
Procedure, shortened: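 Cells seeded at 10000/well and exposed to a compound dose range or vehicle for 4 days, then stained with PrestoBlue for 2 h at 37 °C. Fluorescence was background-subtracted and normalized to vehicle; EC50 came from a four-parameter variable-slope fit against log concentration.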

CBP Bromodomain = molecular target: T1, CBP Bromodomain (Homo sapiens, UniProt Q92793); assay: Assay 3: CBP bromodomain binding assay (TR-FRET)
T1 construct: purchased Cayman chemicals 600850
Protocol: Assay 3 CBP Bromodomain Binding Assay (TR-FRET)
Compounds solutions of 10 mM in DMSO were pre-diluted in DSMO to 25× stock solutions in DMSO. These were then diluted down to 4× in assay buffer. A dilution series in assay buffer was performed keeping the DMSO concentration stable. 5 μl compound in assay buffer was transferred into the assay plate (provided by assay kit) and the TR-FRET assay Cayman chemicals; 600850) was performed using the manufactor's instructions. After 1 hour incubation at room temperature in the darks, assay plates were read in a Tecan M1000 plate reader or a Tecan Spaks reader using the TR-FRET mode (top read; excitation 340 nm bandwidth […]; emission 620 nm bandwidth […]; gain optimal determined for the first well, number of flashes: 5; flash frequency 100 Hz; integration time: 500 μs, lag time: 100 μs, room temperature). The TR-FRET ratio was calculated by deviding 670 nm emission by 620 nm emission. Values were log transformed and non-linear regression with variable slope (4 parameters) was used to fit values to a dose-response curve to evaluate EC50 values.

T1 sequence (Q92793 1085-1192 limits assumed): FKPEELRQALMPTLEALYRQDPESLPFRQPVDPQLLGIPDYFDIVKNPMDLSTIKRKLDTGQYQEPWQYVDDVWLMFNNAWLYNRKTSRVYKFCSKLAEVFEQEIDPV

Row | Structure (SMILES) | EC50 (A375 cells) | EC50 (OPM-2) | EC50 (CBP Bromodomain)
1 | CC(=O)N1C[C@H](c2nc(Nc3cccc(-c4cnn(C)c4)c3)cc(-c3cccnc3)n2)CC[C@@H]1C [Compound 00044, 1-((2S,5R)-2-methyl-5-(4-((3-(1-methyl-1H-pyrazol-4-yl)phenyl)amino)-6-(pyridin-3-yl)pyrimidin-2-yl)piperidin-1-yl)ethan-1-one] | < 200 nM | < 200 nM | < 200 nM
2 | CC(=O)N1C[C@H](c2nc(Nc3cccc4nn(C)cc34)cc(-c3cccnc3)n2)CC[C@@H]1C [Compound 00045, 1-((2S,5R)-2-methyl-5-(4-((2-methyl-2H-indazol-4-yl)amino)-6-(pyridin-3-yl)pyrimidin-2-yl)piperidin-1-yl)ethan-1-one] | < 200 nM | 200 to 1000 nM | < 200 nM
3 | CC(=O)N1C[C@H](c2nc(Nc3cccc(-c4cn(C)nn4)c3)cc(-c3cccnc3)n2)CC[C@@H]1C [Compound 00053, 1-((2S,5R)-2-methyl-5-(4-((3-(1-methyl-1H-1,2,3-triazol-4-yl)phenyl)amino)-6-(pyridin-3-yl)pyrimidin-2-yl)piperidin-1-yl)ethan-1-one] | < 200 nM | < 200 nM | 1000 to 10000 nM
4 | CC(=O)N1C[C@H](c2nc(Nc3cccc(-c4cnn(C)c4)c3)cc(-c3cnccn3)n2)CC[C@@H]1C [Compound 00065, 1-((2S,5R)-2-methyl-5-(4-((3-(1-methyl-1H-pyrazol-4-yl)phenyl)amino)-6-(pyrazin-2-yl)pyrimidin-2-yl)piperidin-1-yl)ethan-1-one] | < 200 nM | < 200 nM | < 200 nM
5 | CC(=O)N1C[C@H](c2nc(Nc3cc(F)cc(-c4cnn(C)c4)c3)cc(-c3cnccn3)n2)CC[C@@H]1C [Compound 00066, 1-((2S,5R)-5-(4-((3-fluoro-5-(1-methyl-1H-pyrazol-4-yl)phenyl)amino)-6-(pyrazin-2-yl)pyrimidin-2-yl)-2-methylpiperidin-1-yl)ethan-1-one] | < 200 nM | < 200 nM | 1000 to 10000 nM
6 | CC(=O)N1C[C@H](c2nc(Nc3cc(F)cc(-c4cn(C)nn4)c3)cc(-c3cnccn3)n2)CC[C@@H]1C [Compound 00069, 1-((2S,5R)-5-(4-((3-fluoro-5-(1-methyl-1H-1,2,3-triazol-4-yl)phenyl)amino)-6-(pyrazin-2-yl)pyrimidin-2-yl)-2-methylpiperidin-1-yl)ethan-1-one] | < 200 nM | < 200 nM | < 200 nM
7 | CC(=O)N1C[C@H](c2nc(Nc3cccc(-c4cn(C)nn4)c3)cc(-c3cncc4c3ccn4C)n2)CC[C@@H]1C [Compound 00086, 1-((2S,5R)-2-methyl-5-(4-((3-(1-methyl-1H-1,2,3-triazol-4-yl)phenyl)amino)-6-(1-methyl-1H-pyrrolo[2,3-c]pyridin-4-yl)pyrimidin-2-yl)piperidin-1-yl)ethan-1-one] | < 200 nM | < 200 nM | < 200 nM
8 | CC(=O)Nc1cc(F)cc(Nc2cc(-c3cncc4c3ccn4C)nc([C@@H]3CC[C@H](C)N(C(C)=O)C3)n2)c1 [Compound 00092, N-(3-((2-((3R,6S)-1-acetyl-6-methylpiperidin-3-yl)-6-(1-methyl-1H-pyrrolo[2,3-c]pyridin-4-yl)pyrimidin-4-yl)amino)-5-fluorophenyl)acetamide] | < 200 nM | < 200 nM | < 200 nM
9 | CC(=O)N1C[C@H](c2nc(Nc3ccnc(C)c3)cc(-c3cncc(C)c3)n2)CC[C@@H]1C [Compound 00103, 1-((2S,5R)-2-methyl-5-(4-(5-methylpyridin-3-yl)-6-((2-methylpyridin-4-yl)amino)pyrimidin-2-yl)piperidin-1-yl)ethan-1-one] | < 200 nM | < 200 nM | < 200 nM
10 | CC(=O)N1C[C@H](c2nc(Nc3ccnc(F)c3)cc(-c3cccnc3)n2)CC[C@@H]1C [Compound 00104, 1-((2S,5R)-5-(4-((2-fluoropyridin-4-yl)amino)-6-(pyridin-3-yl)pyrimidin-2-yl)-2-methylpiperidin-1-yl)ethan-1-one] | < 200 nM | < 200 nM | < 200 nM
11 | CC(=O)N1C[C@H](c2nc(Nc3ccnc(F)c3)cc(-c3cnccn3)n2)CC[C@@H]1C [Compound 00128, 1-((2S,5R)-5-(4-((2-fluoropyridin-4-yl)amino)-6-(pyrazin-2-yl)pyrimidin-2-yl)-2-methylpiperidin-1-yl)ethan-1-one] | < 200 nM | < 200 nM | < 200 nM
12 | CC(=O)N1C[C@H](c2nc(Nc3cc(C)nc(F)c3)cc(-c3cnccn3)n2)CC[C@@H]1C [Compound 00149, 1-((2S,5R)-5-(4-((2-fluoro-6-methylpyridin-4-yl)amino)-6-(pyrazin-2-yl)pyrimidin-2-yl)-2-methylpiperidin-1-yl)ethan1-one] | < 200 nM | < 200 nM | < 200 nM
13 | CC(=O)N1C[C@H](c2nc(Nc3cc(C)nc(N4CCOCC4)c3)cc(-c3cnccn3)n2)CC[C@@H]1C [Compound 00152, 1-((2S,5R)-2-methyl-5-(4-((2-methyl-6-morpholinopyridin-4-yl)amino)-6-(pyrazin-2-yl)pyrimidin-2-yl)piperidin-1-yl)ethan-1-one] | < 200 nM | 200 to 1000 nM | < 200 nM
14 | CC(=O)N1C[C@H](c2nc(Nc3ccnc(C(C)C)c3)cc(-c3cnccn3)n2)CC[C@@H]1C [Compound 00153, 1-((2S,5R)-5-(4-((2-isopropylpyridin-4-yl)amino)-6-(pyrazin-2-yl)pyrimidin-2-yl)-2-methylpiperidin-1-yl)ethan-1-one] | < 200 nM | 200 to 1000 nM | < 200 nM
15 | CC(=O)N1C[C@H](c2nc(Nc3ccnc(-c4cn(C)nn4)c3)cc(-c3cnccn3)n2)CC[C@@H]1C [Compound 00168, 1-((2S,5R)-2-methyl-5-(4-((2-(1-methyl-1H-1,2,3-triazol-4-yl)pyridin-4-yl)amino)-6-(pyrazin-2-yl)pyrimidin-2-yl)piperidin-1-yl)ethan-1-one] | < 200 nM | < 200 nM | < 200 nM
